Data: paper PMC4106981 (Neuropharmacology, 2014)
Where a name gives a salt, the structure may show the parent alone.

What was measured:
[1] = tested on: Male ICR mice; test: Nicotine conditioned place preference; assay type: in vivo, mouse
[2] = tested on: Male ICR mice; test: Spontaneous nicotine withdrawal and its reversal: hot plate hyperalgesia; assay type: in vivo, mouse; conditions: chronic nicotine 36 mg/kg/day in minipumps for 7 days, after removing the mini pumps
[3] = tested on: Male ICR mice; conditions: chronic nicotine 36 mg/kg/day in minipumps for 7 days, after removing the mini pumps
[4] = CYP2A(4/5) null mouse; ref Wei et al., 2013; cited from earlier work
[5] = Plasma nicotine and cotinine levels in the CPP test; assay type: in vivo, mouse
[6] = tested on: human CYP2A6; conditions: ref Zhang et al., 2001; Damaj et al., 2007; cited from earlier work
[7] = tested on: Male ICR mice; test: Activity counts in the drug-paired compartment on CPP test day; assay type: in vivo, mouse; conditions: mean ± S.E.M., n=6-8
[8] = tested on: Male ICR mice; test: Mecamylamine-precipitated nicotine withdrawal: elevated plus maze; assay type: in vivo, mouse
[9] = tested on: Male ICR mice; test: Mecamylamine-precipitated nicotine withdrawal: somatic signs; assay type: in vivo, mouse; conditions: methoxsalen 15 mg/kg i.p. 15 min before nicotine 2 mg/kg s.c. three times daily for 4 days; mecamylamine 2 mg/kg s.c. on day 5

Row | SMILES | Nicotine conditioned place preference ([1]; nicotine 0.1 mg/kg s.c. alone (vehicle pretreatment), vs vehicle-treated group) | Time spent on the hot-plate in spontaneous withdrawal [2] | Number of somatic signs in spontaneous withdrawal [3] | Decrease in rate of nicotine clearance [4] | Nicotine conditioned place preference ([1]; methoxsalen 45 mg/kg i.p. 15 min prior to nicotine 0.1 mg/kg s.c.) | Nicotine conditioned place preference ([1]; methoxsalen 15 and 30 mg/kg i.p. 15 min prior to nicotine 0.1 mg/kg s.c.) | Effect on nicotine plasma levels ([5]; highest dose of methoxsalen (45 mg/kg i.p.) before nicotine 0.1 mg/kg s.c.) | Effect on nicotine plasma levels ([5]; methoxsalen 15, 30, 45 mg/kg i.p. 15 min before nicotine 0.1 mg/kg s.c., blood 20 min after nicotine, last conditioning day) | Inhibition of human CYP2A6 [6] | Activity counts in the drug-paired compartment on test day ([7]; methoxsalen 15 mg/kg i.p. + nicotine 0.1 mg/kg s.c.) | Activity counts in the drug-paired compartment on test day ([7]; methoxsalen 15 mg/kg i.p. + saline) | Activity counts in the drug-paired compartment on test day ([7]; methoxsalen 30 mg/kg i.p. + nicotine 0.1 mg/kg s.c.) | Activity counts in the drug-paired compartment on test day ([7]; methoxsalen 30 mg/kg i.p. + saline) | Activity counts in the drug-paired compartment on test day ([7]; methoxsalen 45 mg/kg i.p. + nicotine 0.1 mg/kg s.c.) | Activity counts in the drug-paired compartment on test day ([7]; methoxsalen 45 mg/kg i.p. + saline) | Number Crossovers (Mean ± SEM) in the plus-maze test ([8]; Methoxsalen 15 mg/kg i.p. / Vehicle / Mecamylamine 2 mg/kg s.c., 5 min, n=5-7) | Average time spent in open arms (elevated plus maze) ([8]; methoxsalen 15 mg/kg i.p. 15 min before nicotine 2 mg/kg s.c. three times daily for 4 days, mecamylamine 2 mg/kg s.c. on day 5) | Somatic withdrawal signs [9]
1 | CN1CCC[C@H]1c1cccnc1 [Nicotine, (−)-1-Methyl-2-(3-pyridyl) pyrrolidine (+)-bitartrate salt] | did not induce place preference | decreased | significantly increased | 90% |  |  |  |  |  |  |  |  |  |  |  |  |  | 
2 | COc1c2occc2cc2ccc(=O)oc12 [Methoxsalen, 8-methoxypsoralen] |  |  |  |  | no longer significant | produced a significant CPP | doubled | significantly increased | potent inhibitor | 524 ± 69 | 561 ± 83 | 488 ± 111 | 470 ± 105 | 513 ± 103 | 503 ± 89 | 6.0 ± 0.8 | further decrease | significant somatic withdrawal signs
